Laboratory results as given in patent publication US20230219965A1 (KSQ Therapeutics, Inc., priority 2020, published 2023).
Like-named read-outs stand apart in the source and are kept apart here.

Assays:
USP1/UAF1 enzyme = USP1/UAF1 enzyme (Homo sapiens, UniProt O94782); assay: USP1/UAF1 deubiquitination assay (ubiquitin-rhodamine 110 substrate); format: biochemical; settings: read-out: USP1 IC50 (Ub-Rho)
How it was run: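 0.05 nM USP1/UAF1 was preincubated 10 min with compounds (dose response from 10 μM) in 50 mM Tris-HCl pH 7.8, 0.5 mM EDTA, 0.01% BSA, 1 mM DTT, 0.01% Tween-20. 150 nM ubiquitin-rhodamine 110 started the reaction, read kinetically 30 min at Ex480/Em540; IC50 by four-parameter fit versus no-enzyme and DMSO controls.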

[1] = system: Ub-PCNA levels in the nucleus of ES2 cells (USP1 activity); assay: ES2 Ub-PCNA immunofluorescence (IF) assay; format: cell-based; settings: read-out: USP1 IC50 (Ub-PCNA)
How it was run: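 Cells plated overnight, then compound-treated for 3 h at 37° C (0.3% DMSO final), methanol-fixed and stained with anti-Ub-PCNA plus DAPI. Per-nucleus Ub-PCNA intensity imaged; cells above the 95% cutoff of untreated wells counted as positive, and percent positive cells used to derive AC50.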

[2] = ADME solubility determination in PBS at pH 2.0 and pH 7.4; format: physicochemical; settings: for solubility at 24 h: phosphate buffered saline, 25 °C, thermodynamic from solid
How it was run: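 Dried 10 mM DMSO stock residues taken up in PBS pH 7.4 or pH 2.0, shaken 24 h at 25° C. After centrifugation, supernatant quantified by LC-MS/MS against a standard of known concentration, with a dilution factor applied.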

[3] = Liver microsomal metabolic stability, rat liver microsomes (RLM); settings: 1 μM compound, 1 mg/mL microsomes, NADPH; for half-life at 1 μM: rat, liver microsomes, t1/2 (min) in RLM
[4] = Liver microsomal metabolic stability, human liver microsomes (HLM); settings: for half-life at 1 μM: human, liver microsomes
[5] = Homo sapiens, ES-2, ES2 cells, 3 hours, Ub-PCNA immunofluorescence
[6] = pH 2, aqueous buffer, PBS pH 2.0, 25° C., read-out: Solubility at pH 2.0
[7] = pH 7.4, aqueous buffer, PBS pH 7.4, 25° C., read-out: Solubility at pH 7.4

Chain of USP1/UAF1 enzyme (O94782 whole entry): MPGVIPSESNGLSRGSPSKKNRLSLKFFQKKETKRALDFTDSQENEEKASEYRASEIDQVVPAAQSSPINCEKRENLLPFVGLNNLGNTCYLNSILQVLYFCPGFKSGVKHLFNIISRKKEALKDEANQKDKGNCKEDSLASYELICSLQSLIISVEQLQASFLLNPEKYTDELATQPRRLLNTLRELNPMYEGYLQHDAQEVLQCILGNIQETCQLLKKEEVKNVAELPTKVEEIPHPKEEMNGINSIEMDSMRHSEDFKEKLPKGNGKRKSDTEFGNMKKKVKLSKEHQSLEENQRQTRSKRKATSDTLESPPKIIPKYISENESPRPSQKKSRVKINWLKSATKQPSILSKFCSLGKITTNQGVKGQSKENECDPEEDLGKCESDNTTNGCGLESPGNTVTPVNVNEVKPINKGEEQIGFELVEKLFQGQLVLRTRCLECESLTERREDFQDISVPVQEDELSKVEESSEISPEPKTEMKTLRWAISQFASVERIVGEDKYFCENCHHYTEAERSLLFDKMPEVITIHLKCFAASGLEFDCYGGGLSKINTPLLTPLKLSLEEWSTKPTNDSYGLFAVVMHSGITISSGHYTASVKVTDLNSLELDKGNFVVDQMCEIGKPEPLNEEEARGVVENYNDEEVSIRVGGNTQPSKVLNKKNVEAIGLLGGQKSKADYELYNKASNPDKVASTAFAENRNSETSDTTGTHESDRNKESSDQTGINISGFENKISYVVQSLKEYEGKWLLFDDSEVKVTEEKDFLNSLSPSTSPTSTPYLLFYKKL
Chain of USP1/UAF1 enzyme (Q8TAF3 whole entry partner): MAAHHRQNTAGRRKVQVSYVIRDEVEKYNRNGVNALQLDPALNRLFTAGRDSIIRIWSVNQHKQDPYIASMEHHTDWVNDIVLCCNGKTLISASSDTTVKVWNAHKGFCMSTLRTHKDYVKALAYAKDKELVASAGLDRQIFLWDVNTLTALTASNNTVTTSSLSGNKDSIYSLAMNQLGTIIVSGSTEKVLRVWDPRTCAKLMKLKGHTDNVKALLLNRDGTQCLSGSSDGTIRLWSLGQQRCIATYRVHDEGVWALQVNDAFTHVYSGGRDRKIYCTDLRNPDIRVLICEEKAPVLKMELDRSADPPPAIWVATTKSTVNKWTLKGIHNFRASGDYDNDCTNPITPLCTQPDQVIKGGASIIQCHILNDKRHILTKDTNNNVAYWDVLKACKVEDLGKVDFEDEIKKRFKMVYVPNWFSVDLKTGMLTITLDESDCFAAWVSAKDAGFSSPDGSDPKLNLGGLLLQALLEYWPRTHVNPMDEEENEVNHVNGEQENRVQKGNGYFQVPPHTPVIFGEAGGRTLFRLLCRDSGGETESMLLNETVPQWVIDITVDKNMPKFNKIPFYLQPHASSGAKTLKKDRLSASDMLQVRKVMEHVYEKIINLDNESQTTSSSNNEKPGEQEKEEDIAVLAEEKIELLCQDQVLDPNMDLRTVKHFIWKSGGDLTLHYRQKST

Row | SMILES | IC50 (USP1/UAF1 enzyme) [nM] | IC50 [1, 5] [nM] | solubility at 24 h [2, 6] [µM] | solubility at 24 h [2, 7] [µM] | half-life at 1 μM [3] [min] | half-life at 1 μM [4] [min] | IC50 ([1]; ES2 cells, 3 hours, Ub-PCNA immunofluorescence) [nM] | Solubility at pH 2.0 (μM) ([2]; PBS pH 2.0, 25° C., 24 hours) | Solubility at pH 7.4 (μM) ([2]; PBS pH 7.4, 25° C., 24 hours) | t1/2 (min) in RLM [3] | t1/2 (min) in HLM ([4]; human liver microsomes, 1 μM compound, 1 mg/mL microsomes, NADPH) | IC50 ([1]; Homo sapiens, ES-2, 3 h) [nM]
1 | CCn1cc(C(F)(F)F)nc1-c1ccc(N(C)C2CCCn3nc(-c4c(Cl)cnn4C(C)C)cc32)cc1 (stereo not drawn) [Example 258, 2-(4-chloro-1-isopropyl-1H-pyrazol-5-yl)-N-(4-(1-ethyl-4-(trifluoromethyl)-1H-imidazol-2-yl)phenyl)-N-methyl-4,5,6,7-tetrahydropyrazolo[1,5-α]pyridin-4-amine] | < 100 | 100 to 500 | < 10 | < 10 | < 25 | < 25 |  |  |  |  |  | 
2 | CCn1cc(C(F)(F)F)nc1-c1ccc(OC2CCCn3nc(-c4c(Cl)cnn4C(C)C)cc32)cc1 (stereo not drawn) [Example 261, 2-(4-chloro-1-isopropyl-1H-pyrazol-5-yl)-4-(4-(1-ethyl-4-(trifluoromethyl)-1H-imidazol-2-yl)phenoxy)-4,5,6,7-tetrahydropyrazolo[1,5-α]pyridine] | < 100 | < 100 | < 10 | < 10 | > 25 | > 25 |  |  |  |  |  | 
3 | CCn1cc(C(F)(F)F)nc1-c1ccc(OC2CCCn3nc(-c4c(Cl)cnn4C(C)C)cc32)cc1F (stereo not drawn) [Example 262] | < 100 | 100 to 500 | < 10 | < 10 | > 25 | > 25 |  |  |  |  |  | 
4 | CCn1cc(C(F)(F)F)nc1-c1ccc(CC2OCCn3nc(-c4c(Cl)cnn4C(C)C)cc32)cc1 (stereo not drawn) [Example 265, 2-(4-chloro-1-isopropyl-1H-pyrazol-5-yl)-4-(4-(1-ethyl-4-(trifluoromethyl)-1H-imidazol-2-yl)benzyl)-6,7-dihydro-4H-pyrazolo[5,1-c][1,4]oxazine] | < 100 | 100 to 500 | < 10 | < 10 | < 25 | < 25 |  |  |  |  |  | 
5 | CCn1cc(C(F)(F)F)nc1-c1ccc(NC2CCCn3nc(-c4c(C#N)cnn4C(C)C)cc32)cc1F (stereo not drawn) [Example 266, 5-(4-((4-(1-ethyl-4-(trifluoromethyl)-1H-imidazol-2-yl)-3-fluorophenyl)amino)-4,5,6,7-tetrahydropyrazolo[1,5-α]pyridin-2-yl)-1-isopropyl-1H-pyrazole-4-carbonitrile] | < 100 | 100 to 500 | < 10 | < 10 | > 25 | > 25 |  |  |  |  |  | 
6 | CCn1cc(C(F)(F)F)nc1-c1ccc(CN2CC(O)Cn3nc(-c4c(Cl)cnn4C(C)C)cc32)cc1F (stereo not drawn) [Example 267, 2-(4-chloro-1-isopropyl-1H-pyrazol-5-yl)-4-(4-(1-ethyl-4-(trifluoromethyl)-1H-imidazol-2-yl)-3-fluorobenzyl)-4,5,6,7-tetrahydropyrazolo[1,5-α]pyrimidin-6-ol] | < 100 |  |  |  |  |  | < 100 | + (“+” indicates less than 10 μM) | + (“+” indicates less than 10 μM) | + (“+” indicates less than 25 minutes) | + (“+” indicates less than 25 minutes) | 
7 | CCn1cc(C(F)(F)F)nc1-c1ccc(COC2CCCn3nc(-c4c(Cl)cnn4C(C)C)cc32)cc1 (stereo not drawn) [Example 270, 2-(4-chloro-1-isopropyl-1H-pyrazol-5-yl)-4-((4-(1-ethyl-4-(trifluoromethyl)-1H-imidazol-2-yl)benzyl)oxy)-4,5,6,7-tetrahydropyrazolo[1,5-α]pyridine] | < 100 | < 100 | < 10 | < 10 | < 25 | < 25 |  |  |  |  |  | 
8 | CC(C)n1ncc(Cl)c1-c1cc2n(n1)CCC(=O)N2Cc1ccc(-c2ncccc2OC2CC2)c(Cl)c1 [Example 290] | < 100 | 100 to 500 | ≥ 10 | < 10 | < 25 | < 25 |  |  |  |  |  | 
9 | CC(C)Oc1cccnc1-c1ccc(CN2C(=O)CCn3nc(-c4c(Cl)cnn4C(C)C)cc32)cc1 [Example 291] | < 100 | 100 to 500 | < 10 | < 10 | < 25 | < 25 |  |  |  |  |  | 
10 | COc1ccc(C(F)(F)F)nc1-c1ccc(CN2C(=O)CCn3nc(-c4c(Cl)cnn4C(C)C)cc32)cc1Cl [Example 294] | < 100 | < 100 | < 10 | < 10 | < 25 | > 25 |  |  |  |  |  | 
11 | CC(C)n1ncc(Cl)c1-c1cc2n(n1)CCC(=O)N2Cc1ccc(-c2ncccc2N2CCOCC2)c(Cl)c1 [Example 296] | < 100 | 100 to 500 | ≥ 10 | < 10 | < 25 | < 25 |  |  |  |  |  | 
12 | CC(C)Oc1cccnc1-c1ccc(CN2C(=O)CCn3nc(-c4c(Cl)cnn4C(C)C)nc32)cc1 [Example 304] | < 100 | 100 to 500 | ≥ 10 | < 10 | < 25 | < 25 |  |  |  |  |  | 
13 | COc1cccnc1-c1ccc(CN2C(=O)CCn3nc(-c4c(Cl)cnn4C(C)C)cc32)cc1 [Example 305] | < 100 | 100 to 500 | ≥ 10 | < 10 | < 25 | < 25 |  |  |  |  |  | 
14 | CCOc1cccnc1-c1ccc(CN2C(=O)CCn3nc(-c4c(Cl)cnn4C(C)C)cc32)cc1Cl [Example 307] | < 100 | 100 to 500 | < 10 | < 10 | < 25 | < 25 |  |  |  |  |  | 
15 | COc1ccc(C)nc1-c1ccc(CN2C(=O)CCn3nc(-c4c(Cl)cnn4C(C)C)cc32)cc1Cl [Example 309] | < 100 | 100 to 500 | ≥ 10 | < 10 | < 25 | < 25 |  |  |  |  |  | 
16 | CC(C)n1ncc(Cl)c1-c1cc2n(n1)CCC(=O)N2Cc1ccc(-c2ncccc2N(C)C)cc1 [Example 321] | < 100 | < 100 | ≥ 10 | < 10 | < 25 | < 25 |  |  |  |  |  | 
17 | CCn1cc(C(F)(F)F)nc1-c1ccc(CN2CC(C)(C)Cn3nc(-c4c(OC)ncnc4C4CC4)cc32)cc1F [Example 327, 2-(4-cyclopropyl-6-methoxypyrimidin-5-yl)-4-(4-(1-ethyl-4-(trifluoromethyl)-1H-imidazol-2-yl)-3-fluorobenzyl)-6,6-dimethyl-4,5,6,7-tetrahydropyrazolo[1,5-α]pyrimidine] | < 100 | < 100 | ≥ 10 | < 10 | < 25 | < 25 |  |  |  |  |  | 
18 | CCn1cc(C(F)(F)F)nc1-c1ccc(CNC2CCCn3nc(-c4c(Cl)cnn4C(C)C)cc32)cc1 (stereo not drawn) [Example 330, 2-(4-chloro-1-isopropyl-1H-pyrazol-5-yl)-N-(4-(1-ethyl-4-(trifluoromethyl)-1H-imidazol-2-yl)benzyl)-4,5,6,7-tetrahydropyrazolo[1,5-α]pyridin-4-amine] | < 100 |  | ≥ 10 | < 10 | < 25 | < 25 |  |  |  |  |  | < 100
19 | CCn1cc(C(F)(F)F)nc1-c1ccc(N(CCO)C2CCCn3nc(-c4c(Cl)cnn4C(C)C)cc32)cc1F (stereo not drawn) [Example 331, 2-((2-(4-chloro-1-isopropyl-1H-pyrazol-5-yl)-4,5,6,7-tetrahydropyrazolo[1,5-α]pyridin-4-yl)(4-(1-ethyl-4-(trifluoromethyl)-1H-imidazol-2-yl)-3-fluorophenyl)amino)-ethan-1-ol] | < 100 | < 100 | < 10 | < 10 | < 25 | < 25 |  |  |  |  |  | 
20 | CCn1cc(C(F)(F)F)nc1-c1ccc(Cn2c(=O)ccn3nc(-c4c(OC)ncnc4C4CC4)cc23)cc1 [Example 332, 2-(4-cyclopropyl-6-methoxypyrimidin-5-yl)-4-(4-(1-ethyl-4-(trifluoromethyl)-1H-imidazol-2-yl)benzyl)pyrazolo[1,5-α]pyrimidin-5(4H)-one] | < 100 | < 100 | ≥ 10 | ≥ 10 | > 25 | > 25 |  |  |  |  |  | 
